Test results as given in PMC5487684, “Safety, Pharmacokinetics, and Antiviral Activity of a Novel HIV Antiviral, ABX464, in Treatment-Naive HIV-Infected Subjects in a Phase 2 Randomized, Controlled Study” (Antimicrobial Agents and Chemotherapy, 2017).

Tests used:
[1] = tested on: HIV; assay: HIV viral load (HIV-1 RNA copies per milliliter) in treatment-naive HIV-infected patients; format: in vivo
Method: Safety assessments and laboratory tests were carried out according to the schedules described in Table S4 for groups dosed every day, every 3 days, and 3 times a day. Follow-up visits were scheduled for 7 days after the last dose and subsequently once every week in order to assess the elimination of the main ABX464 metabolite and to assess the viral load. Follow-up visits were terminated when the virus load was within 0.5 log of the baseline value or after 3 follow-up visits, whichever came first. Prior to the statistical analyses, AEs were coded using the Medical Dictionary for Regulatory Activities (MedDRA dictionary; last available version) in order to be tabulated by system organ class (SOC) and preferred term (PT). The AEs were analyzed according to the treatment emergence phase from the first study drug administration on day 1 up to 48 h after the last study drug administration. The number and percentage of subjects with at least one TEAE were tabulated by SOC and PT for each group and dose. The number of occurrences of TEAEs was also analyzed in the same way by SOC and PT for each group and dose, by grade of severity for each group and dose, and by level of causality to the study drug for each group and dose.
(§1) Plasma samples were analyzed for ABX464 and ABX464-NGlc using validated bioanalytical methods by Atlanbio (Saint Nazaire, France) according to good laboratory practices. Pharmacokinetic parameters were calculated by noncompartmental analysis (NCA), using Phoenix WinNonlin software (Pharsight Corporation) running on a personal computer. On day 1, the following PK parameters were generated: Cmax, the time to Cmax (Tmax), lag time (tlag), elimination rate constant (kel), area under the concentration-time curve (AUC) from time zero to time t (AUC0–t), AUC from time zero to infinity (AUC0–∞), apparent clearance (CL/F), and apparent volume of distribution (V/F). On the other days of PK assessment, only Cmax, Tmax, tlag, kel, and AUC0–t were generated. The secondary analysis concerned pharmacodynamic (PD) activity, as expressed by CD4 and CD8 levels and viral load across time. The HIV viral load was analyzed in the prequalified individual local study center laboratories. CD4 and CD8 cell counts were also determined in the local study center laboratories. With respect to the viral load, changes in the log-transformed viral load values between 24 h postdose and predose were calculated on each day, and a comparison between each dose level and pooled placebo data was made. Moreover, the rate of success (defined as a decrease in the viral load value of at least 0.5 log) was evaluated for each treatment (including placebo) and compared between treatments.
No formal sample size determination was done. The aim of the study was to obtain reliable and consistent data and to expose a limited number of subjects to ABX464. To achieve this aim, six subjects per group received ABX464. A mixed model analysis of covariance of the changes in the viral load compared to that at the baseline was conducted on log-transformed values. Baseline parameters and age were covariates, treatment groups were fixed effects, and subjects were random effects.

[2] = tested on: CD4 and CD8 cell counts; assay: CD4 and CD8 cell counts in HIV-infected subjects; format: in vivo, human
Method: as §1, with “The secondary analysis concerned pharmacodynamic (PD) activity, as expressed by CD4 and CD8 levels and viral load across time.” left out

[3] = cited from earlier work
[4] = tested on: HIV; set-up: method as in PMID 25889234; settings: cited from earlier work
[5] = tested on: HIV replication in PBMCs; set-up: method as in PMID 25889234; settings: in vitro; cited from earlier work
[6] = tested on: HIV replication in macrophages; set-up: method as in PMID 25889234; settings: in vitro; cited from earlier work
[7] = Non-infected, single oral 50mg (fasted), N 17
[8] = Non-infected, single oral 50mg (fasted), N 23

FC(F)(F)Oc1ccc(Nc2ccc3cccc(Cl)c3n2)cc1 [ABX464]
Change in log10 no. of RNA copies/ml from that at the baseline ([1]; Group 7 (150 mg every 3 days, fed), subject 908, day 16): −0.72 log10 no. of RNA copies/ml
Change in log10 no. of RNA copies/ml from that at the baseline ([1]; Group 7 (150 mg every 3 days, fed), subject 908, day 19): −0.53 log10 no. of RNA copies/ml
Change in log10 no. of RNA copies/ml from that at the baseline ([1]; Group 7 (150 mg every 3 days, fed), subject 908, day 20): −0.59 log10 no. of RNA copies/ml
Change in log10 no. of RNA copies/ml from that at the baseline ([1]; Group 8 (150 mg q.d., fed), subject 1001, day 10): −0.5 log10 no. of RNA copies/ml
Change in log10 no. of RNA copies/ml from that at the baseline ([1]; Group 8 (150 mg q.d., fed), subject 1001, day 11): −0.62 log10 no. of RNA copies/ml
Change in log10 no. of RNA copies/ml from that at the baseline ([1]; Group 8 (150 mg q.d., fed), subject 1001, day 14): −0.72 log10 no. of RNA copies/ml
Change in log10 no. of RNA copies/ml from that at the baseline ([1]; Group 8 (150 mg q.d., fed), subject 1001, day 15): −0.68 log10 no. of RNA copies/ml
Change in log10 no. of RNA copies/ml from that at the baseline ([1]; Group 8 (150 mg q.d., fed), subject 1004, day 10): −0.5 log10 no. of RNA copies/ml
Change in log10 no. of RNA copies/ml from that at the baseline ([1]; Group 8 (150 mg q.d., fed), subject 1004, day 14): −0.51 log10 no. of RNA copies/ml
Change in log10 no. of RNA copies/ml from that at the baseline ([1]; Group 8 (150 mg q.d., fed), subject 1004, day 15): −0.51 log10 no. of RNA copies/ml
Change in log10 no. of RNA copies/ml from that at the baseline ([1]; Group 8 (150 mg q.d., fed), subject 1005, day 7): −0.53 log10 no. of RNA copies/ml
Change in log10 no. of RNA copies/ml from that at the baseline ([1]; Group 8 (150 mg q.d., fed), subject 1005, day 11): −0.52 log10 no. of RNA copies/ml
Change in log10 no. of RNA copies/ml from that at the baseline ([1]; Group 8 (150 mg q.d., fed), subject 1008, day 8): −0.59 log10 no. of RNA copies/ml
Change in log10 no. of RNA copies/ml from that at the baseline ([1]; Group 8 (150 mg q.d., fed), subject 1008, day 10): −0.57 log10 no. of RNA copies/ml
Change in log10 no. of RNA copies/ml from that at the baseline ([1]; Group 8 (150 mg q.d., fed), subject 1008, day 11): −0.56 log10 no. of RNA copies/ml
Change in log10 no. of RNA copies/ml from that at the baseline ([1]; Group 8 (150 mg q.d., fed), subject 1008, day 14): −0.53 log10 no. of RNA copies/ml
Mean changes in the viral load vs placebo group ([1]; any time point over the 14-day study period, all treatment groups): No statistically significant differences
Subjects with a decrease of ≥0.5 log10 in HIV RNA load ([1]; group 1, 25 mg every 3 days, fasted): 3 subjects
Subjects with a decrease of ≥0.5 log10 in HIV RNA load ([1]; group 2, 25 mg q.d., fasted): 1 subjects
Subjects with a decrease of ≥0.5 log10 in HIV RNA load ([1]; group 4, 50 mg t.i.d., fed): 2 subjects
Subjects with a decrease of ≥0.5 log10 in HIV RNA load ([1]; group 5, 75 mg q.d., fed): 1 subjects
Subjects with a decrease of ≥0.5 log10 in HIV RNA load ([1]; group 6, 100 mg q.d., fasted): 2 subjects
Subjects with a decrease of ≥0.5 log10 in HIV RNA load ([1]; group 7, 150 mg every 3 days, fed): 1 subjects
Subjects with a decrease of ≥0.5 log10 in HIV RNA load ([1]; group 8, 150 mg q.d. for 2 weeks, fed (6 treated)): 4 subjects
CD4 profile ([2]; each ABX464 dose): no trend associated with product use or dose
Mean changes in the CD8 cell counts from baseline ([2]; human, in vivo): did not show any particular trend
AUC0-∞, GM [3, 7]: 43.93 ng·h/mL
AUC0-∞, Mean [3, 7]: 51.74 ng·h/mL
t1/2, GM [3, 7]: 49.8 min
t1/2, Mean [3, 7]: 52.8 min
Cmax, GM [3, 8]: 13.70 ng/mL
Cmax, Mean [3, 8]: 17.70 ng/mL
tmax, Mean [3, 8]: 90 min
Metabolism in human subjects ([3]; healthy subjects, single ascending oral dose): rapidly and substantially metabolized into ABX464-N-glucuronide
Virus replication in two humanized mouse models of HIV infection [4]: substantially reduced virus replication
Mice with an undetectable viral load ([4]; humanized mice, after 2 to 3 weeks of treatment): 30%
Virus rebound after termination of therapy ([4]; vs cART-treated control animals, over 6 weeks after treatment termination): substantially lower virus rebound
Antiviral effect on HIV replication in PBMCs [5]: can inhibit HIV replication
Inhibition of HIV replication in macrophage culture [6]: can inhibit HIV replication
